Data: US20070238098A1, “Method and Kit for Predicting Adverse Side Effects of Paclitaxel Therapy” (priority 2003, published 2007)

Tested on: breast cancer patients
Experiment: clinical study of paclitaxel preoperative chemotherapy: adverse side effects graded by NCI-CTC
Type: in vivo, human
Settings: 54 breast cancer patients, stage II or IIIa; 80 mg/m paclitaxel by intravenous infusion over 1 hour, once a week for 12 weeks
Protocol: 54 breast cancer patients were registered in a clinical study of paclitaxel preoperative chemotherapy. The following summarizes the criteria for patient selection. 1) Breast cancer patients age 70 or younger in stage II or IIIa as indicated by histopathological testing; and, 2) suitable physiological function (WBC >4,000 mm^3, platelet count […], hemoglobin level >10 g/dl, serum creatinine concentration <1.2 mg/dl, serum total bilirubin level <1.5 mg/dl, GOT/GPT <60/70). Patients who received proceeding chemotherapy or radiation therapy were excluded. Namely, all 54 patients who participated in this clinical study of paclitaxel preoperative chemotherapy were nearly at the same stage either clinically or histologically, and had no prior history of chemotherapy. […]
White blood cell count, red blood cell count, hemoglobin level and platelet count were measured weekly for each patient to evaluate the presence or absence of adverse side effects. Adverse side effects observed during the course of therapy were evaluated and graded based on the Common Toxicity Criteria of the US National Cancer Institute (NCI-CTC) (see Trotti, A., et al., Common toxicity criteria: version 2.0—an improved reference for grading the acute effects of cancer treatment: impact on radiotherapy, Int. J. Radiat. Oncol. Biol. Phys., 47: 13-47, 2000). […]

With `CC(=O)O[C@H]1C(=O)[C@@]2(C)[C@H]([C@H](OC(=O)c3ccccc3)[C@]3(O)C[C@H](OC(=O)[C@H](O)[C@@H](NC(=O)c4ccccc4)c4ccccc4)C(C)=C1C3(C)C)[C@]1(OC(C)=O)CO[C@@H]1C[C@@H]2O` [paclitaxel] the “granulocytopenia observed (most frequently observed adverse side effect; NCI-CTC grade 1 to 4)” value was 24 patients.
